The target in this series is T1, ABCC4 (Homo sapiens, UniProt O15439).
T1 sequence (O15439 1-1325): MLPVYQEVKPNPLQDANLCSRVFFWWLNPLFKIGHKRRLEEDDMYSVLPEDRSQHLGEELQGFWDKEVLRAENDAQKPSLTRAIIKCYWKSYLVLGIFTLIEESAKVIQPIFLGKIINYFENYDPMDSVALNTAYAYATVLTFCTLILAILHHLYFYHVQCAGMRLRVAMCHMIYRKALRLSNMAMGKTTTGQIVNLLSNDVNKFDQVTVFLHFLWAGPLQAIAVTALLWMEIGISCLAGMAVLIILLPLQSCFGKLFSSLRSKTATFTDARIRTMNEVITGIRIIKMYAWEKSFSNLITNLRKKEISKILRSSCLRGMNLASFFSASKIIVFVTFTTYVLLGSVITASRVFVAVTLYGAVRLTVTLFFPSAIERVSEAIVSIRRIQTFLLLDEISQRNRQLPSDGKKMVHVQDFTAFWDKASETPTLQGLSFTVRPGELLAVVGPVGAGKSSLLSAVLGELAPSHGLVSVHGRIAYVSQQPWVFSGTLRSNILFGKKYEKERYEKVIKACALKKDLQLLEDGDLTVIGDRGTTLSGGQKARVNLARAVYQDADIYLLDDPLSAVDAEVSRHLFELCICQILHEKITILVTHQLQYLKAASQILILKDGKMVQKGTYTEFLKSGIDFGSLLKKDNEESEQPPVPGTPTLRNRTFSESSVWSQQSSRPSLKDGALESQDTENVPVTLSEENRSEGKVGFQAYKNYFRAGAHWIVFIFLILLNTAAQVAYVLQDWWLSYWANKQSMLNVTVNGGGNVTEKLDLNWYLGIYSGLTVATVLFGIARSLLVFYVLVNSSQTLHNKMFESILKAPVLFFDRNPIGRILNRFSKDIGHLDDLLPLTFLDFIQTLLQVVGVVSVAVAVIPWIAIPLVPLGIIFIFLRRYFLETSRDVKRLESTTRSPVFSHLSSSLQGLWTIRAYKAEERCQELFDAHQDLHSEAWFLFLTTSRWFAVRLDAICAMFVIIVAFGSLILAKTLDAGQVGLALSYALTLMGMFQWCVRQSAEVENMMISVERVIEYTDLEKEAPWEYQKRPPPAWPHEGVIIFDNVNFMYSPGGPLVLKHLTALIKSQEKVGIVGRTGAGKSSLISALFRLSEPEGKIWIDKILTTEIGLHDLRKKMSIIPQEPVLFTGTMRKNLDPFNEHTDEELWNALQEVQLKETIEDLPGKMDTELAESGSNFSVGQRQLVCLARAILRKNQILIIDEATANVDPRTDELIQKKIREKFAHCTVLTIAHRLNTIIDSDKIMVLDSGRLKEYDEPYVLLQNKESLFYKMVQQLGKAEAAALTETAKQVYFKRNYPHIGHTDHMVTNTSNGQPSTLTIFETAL
Put plainly: biochemical. The series is classed as biochemical. How it is done:
Freshly collected EDTA blood from healthy donors (n = 35) was prepared at 0°C–4°C, starting by separating the erythrocytes from plasma by centrifugation at 2,300 g for approximately 15 min. […] Lysis followed thereafter, with ten volumes of 5 mM Tris-HCl, 0.5 mM EGTA, 4 mM KCl (pH 8.1) and washed by repeated centrifugation at 20,000 g for 20 min and resuspension in the same buffer. Vesiculation was initiated by adding 39 volumes of a […] buffer ([…] Tris-HCl, pH 8.2) to one volume of cell suspension and completed by forcing the solution five times through a 27-gauge syringe needle to promote homogenization of the membranes. […] The resulting IOVs, which still contained ABC-transporters in the membrane, enabled us to control the intracellular environment, in this case the surrounding medium, and collect the cyclic nucleotides within. […] Radioactive labeled (^3H)-cAMP or (^3H)-cGMP (Perkin Elmer, Boston, MA, United States) were added to the incubation solutions in the concentration 20 and 2 μM, respectively, depending on the transporter examined, together with the appointed study drug in concentrations up to 1 mM. […] Next step was to collect the IOVs, which was done by filtration through a nitrocellulose membrane (Bio-Rad Laboratories, Feldkirchen, Germany), and then drying it. The resulting collection of radioactivity upon the filter, was later quantified by using a Packard TopCount NXT (Packard, Downers Grove, IL, United states) after adding scintillation fluid (MicroScint-O, PerkinElmer, Groningen, Netherlands).
IC50 and Ki values were calculated for each of the drugs, both for their ability to inhibit cAMP- and cGMP- efflux, as well as PDE3 and PDE5 activity. […] Inhibition curves were created accordingly, both with and without adjustment for normothermic control.

Where two headings read alike, the source gives them in different places.

What is called IC50 is the concentration at which inhibition is half-maximal. A word on the Ki: it is a measure of affinity in units of concentration, obtained from inhibition or displacement. In the case of `Nc1cc(-c2ccncc2)c[nH]c1=O` [Amrinone], the IC50 is, setting by setting: (28°C, cAMP-efflux, inside-out vesicles, 20 µM 3H-cAMP, 60 min, read-out: ABCC4 IC50) 8.42 ± 4.81 µM; (32°C, cAMP-efflux, inside-out vesicles, 20 µM 3H-cAMP, 60 min, read-out: ABCC4 IC50) 5.49 ± 2.25 µM; (34°C, cAMP-efflux, inside-out vesicles, 20 µM 3H-cAMP, 60 min, read-out: ABCC4 IC50) 1.21 ± 0.1 µM; (37°C, cAMP-efflux, inside-out vesicles, 20 µM 3H-cAMP, 60 min, read-out: ABCC4 IC50) 4.65 ± 3.21 µM. For the same compound, the Ki was determined as 5.11 ± 2.91 µM (28°C, cAMP-efflux, inside-out vesicles, read-out: ABCC4 Ki); 3.33 µM (32°C, cAMP-efflux, inside-out vesicles, read-out: ABCC4 Ki); 0.73 ± 0.058 µM (34°C, cAMP-efflux, inside-out vesicles, read-out: ABCC4 Ki); 2.82 µM (37°C, cAMP-efflux, inside-out vesicles, read-out: ABCC4 Ki).

As to `C[C@@H]1CC(=O)NN=C1c1ccc(NN=C(C#N)C#N)cc1` [Levosimendan], the “Drug selectivity (IC50)/(IC50): (cAMP-efflux)/(PDE3) inhibition” value runs as follows: (28°C) 270.65; (28°C, listed as L) 270.7; (32°C) 85.98; (34°C) 43.45; (37°C) 28.76. Further, the IC50 is, setting by setting: (28°C, Table 3, read-out: ABCC5 IC50 (Table 3)) 27.2 ± 21.3 µM; (32°C, Table 3, read-out: ABCC5 IC50 (Table 3)) 16.5 ± 5.56 µM; (34°C, Table 3, read-out: ABCC5 IC50 (Table 3)) 12.7 ± 6.6 µM; (37°C, Table 3, read-out: ABCC5 IC50 (Table 3)) 9.41 ± 5.91 µM. Moreover, the Ki reads like this: (28°C, Table 3, read-out: ABCC5 Ki (Table 3)) 16.5 ± 12.9 µM; (32°C, Table 3, read-out: ABCC5 Ki (Table 3)) 10 ± 3.37 µM; (34°C, Table 3, read-out: ABCC5 Ki (Table 3)) 7.73 ± 4 µM; (37°C, Table 3, read-out: ABCC5 Ki (Table 3)) 5.71 ± 3.58 µM.

The record behind these values is publication PMC9326216, “Treatment of Cardiovascular Dysfunction with PDE3-Inhibitors in Moderate and Severe Hypothermia—Effects on Cellular Elimination of Cyclic Adenosine Monophosphate and Cyclic Guanosine Monophosphate” (Frontiers in Physiology, 2022).
